Experimental data reported in US20220323437A1, “METHODS FOR TREATING PULMONARY ARTERIAL HYPERTENSION” (ACTELION PHARMACEUTICALS LTD, priority 2019, published 2022).
Read-outs that look alike come from different tables or passages of the source.

Assay: Pharmacokinetics of selexipag and ACT-333679 after oral and i.v. selexipag in subjects with stable PAH (Phase 3 switch study)
Format: in vivo, human
Conditions: for AUC / Cmax: human, plasma, steady state; for AUC: read-out: AUCτ, ss Geom. Mean; for Cmax: read-out: Cmax, ss Geom. Mean
Protocol: This was a prospective, multicenter, open-label, single-sequence, cross-over, Phase 3 study. Based on the dose of selexipag received at study entry, subjects were allocated to one of the following groups, selexipag 200-1000 μg b.i.d. or selexipag 1200-1600 μg b.i.d. See, FIG. 1. The study comprised the following periods:
(ii) Treatment and observation period: The treatment and observation period included the following consecutive periods: • Period 1 included oral selexipag pre-treatment period for 1 day, in-hospital. This period started with intake of the morning dose of oral selexipag on Day 1 at Visit 2 and ended the following day, before initiation of the first infusion of i.v. selexipag. • Period 2 included i.v. selexipag treatment period for 36 hours [3 infusions], in-hospital. This period started in the morning of Day 2 at Visit 2 with the start of the first infusion of i.v. selexipag and ended in the evening of Day 3 at Visit 2 before the evening administration of oral selexipag. Administration of oral selexipag was interrupted during the i.v. selexipag treatment period. • Period 3 included oral selexipag post-treatment period for 7 to 11 day. This period started in the evening of Day 3 at Visit 2 with the administration of oral selexipag and ended 7-11 days later, at Visit 3.
Selexipag was provided as a dry powder to be reconstituted as an injectable solution for i.v. administration. Before administration, selexipag dry powder was to be reconstituted and diluted with sterile 0.9% NaCl solution. Each subject received an i.v. selexipag dose that corresponded to the subject's individual stable dose of oral selexipag. […] See, Table 4.
The intravenous infusion took place over a 87-minute period (2 infusions on Day 2 and 1 infusion on Day 3)
The following PK endpoints were analyzed for selexipag and its active metabolite, ACT-333679, after oral selexipag in Period 1 and after i.v. selexipag administration in Period 2. See, FIG. 2. • The area under the plasma-concentration time curve (AUC) during a dose interval at steady state (AUCτ, ss). • The maximum plasma concentration at steady state (Cmax, ss). • The time to reach maximum plasma concentration at steady state (tmax, ss). • Trough plasma concentration at steady state (Ctrough, ss).

CC(C)N(CCCCOCC(=O)O)c1cnc(-c2ccccc2)c(-c2ccccc2)n1 [ACT-333679]
tmax, ss between the i.v. and oral selexipag periods (Period 2 vs Period 1): comparable
slope of dose proportional increase in exposure (after i.v. selexipag, 450-1800 μg b.i.d. dose range): 0.697
exposure after i.v. and oral selexipag administration (conclusion of the study): comparable
AUC (iv, Period 2 (i.v. selexipag)): 15.9 ng·h/mL
Cmax (iv, Period 2 (i.v. selexipag)): 2.6 ng/mL
AUC (Period 1 (oral selexipag)): 19.3 ng·h/mL
Cmax (Period 1 (oral selexipag)): 3.3 ng/mL
dose-normalized geometric mean ratio (i.v./oral selexipag) for AUCτ, ss (90% CI) (i.v. to oral dose ratio 1.125): 0.80 (0.71, 0.90)
dose-normalized geometric mean ratio (i.v./oral selexipag) for Cmax, ss (90% CI) (i.v. to oral dose ratio 1.125): 0.79 (0.65, 0.96)
